Reference: patent publication US8232406B2, “c-MET protein kinase inhibitors” (Vertex Pharmaceuticals Incorporated, priority 2006, dated 2012)

Target: c-MET (Homo sapiens, UniProt P08581)
Experiment: Ki determination for the inhibition of c-MET (standard radiometric 33P-ATP kinase assay, polyE4Y substrate)
Assay type: biochemical
Details: 1.0 nM c-Met, 35 μM ATP, 0.5 mg/mL polyE4Y, 20 min; competitive tight-binding fit
Protocol: Ki Determination for the Inhibition of c-MET
Compounds of the invention were screened for their ability to inhibit c-MET kinase activity using a standard radiometric assay. Briefly, in this kinase assay the transfer of the terminal ^33P-phosphate in ^33P-ATP to substrate polyE4Y is interrogated. The assay was carried out in 96-well plates to a final volume of 100 μL per well containing 1.0 nM c-Met, 100 mM HEPES (pH 7.5), 10 mM MgCl2, 25 mM NaCl, 0.01% BSA, 1 mM DTT, 0.5 mg/mL polyE4Y, and 35 μM ATP. Accordingly, compounds of the invention were dissolved in DMSO to make 10 mM initial stock solutions. Serial dilutions in DMSO were then made to obtain the final solutions for the assay. A 1.5 μL aliquot of DMSO or inhibitor in DMSO was added to each well. The reaction was initiated by the addition of ^33P-ATP and polyE4Y (obtained from Sigma). After 20 min, the reaction was quenched with 50 μL of 30% trichloroacetic acid (TCA) containing 4 mM ATP. The reaction mixture was transferred to the 0.66 mm GF filter plates (Corning) and washed three times with 5% TCA. Following the addition of 50 μL of Ultimate Gold™ high efficiency scintillant (Packard Bioscience), the samples were counted in a Packard TopCount NXT Microplate Scintillation and Luminescence Counter (Packard BioScience). The Ki values were calculated using Microsoft Excel Solver macros to fit the data to the kinetic model for competitive tight-binding inhibition.

c-MET, sequence (P08581 25-1390): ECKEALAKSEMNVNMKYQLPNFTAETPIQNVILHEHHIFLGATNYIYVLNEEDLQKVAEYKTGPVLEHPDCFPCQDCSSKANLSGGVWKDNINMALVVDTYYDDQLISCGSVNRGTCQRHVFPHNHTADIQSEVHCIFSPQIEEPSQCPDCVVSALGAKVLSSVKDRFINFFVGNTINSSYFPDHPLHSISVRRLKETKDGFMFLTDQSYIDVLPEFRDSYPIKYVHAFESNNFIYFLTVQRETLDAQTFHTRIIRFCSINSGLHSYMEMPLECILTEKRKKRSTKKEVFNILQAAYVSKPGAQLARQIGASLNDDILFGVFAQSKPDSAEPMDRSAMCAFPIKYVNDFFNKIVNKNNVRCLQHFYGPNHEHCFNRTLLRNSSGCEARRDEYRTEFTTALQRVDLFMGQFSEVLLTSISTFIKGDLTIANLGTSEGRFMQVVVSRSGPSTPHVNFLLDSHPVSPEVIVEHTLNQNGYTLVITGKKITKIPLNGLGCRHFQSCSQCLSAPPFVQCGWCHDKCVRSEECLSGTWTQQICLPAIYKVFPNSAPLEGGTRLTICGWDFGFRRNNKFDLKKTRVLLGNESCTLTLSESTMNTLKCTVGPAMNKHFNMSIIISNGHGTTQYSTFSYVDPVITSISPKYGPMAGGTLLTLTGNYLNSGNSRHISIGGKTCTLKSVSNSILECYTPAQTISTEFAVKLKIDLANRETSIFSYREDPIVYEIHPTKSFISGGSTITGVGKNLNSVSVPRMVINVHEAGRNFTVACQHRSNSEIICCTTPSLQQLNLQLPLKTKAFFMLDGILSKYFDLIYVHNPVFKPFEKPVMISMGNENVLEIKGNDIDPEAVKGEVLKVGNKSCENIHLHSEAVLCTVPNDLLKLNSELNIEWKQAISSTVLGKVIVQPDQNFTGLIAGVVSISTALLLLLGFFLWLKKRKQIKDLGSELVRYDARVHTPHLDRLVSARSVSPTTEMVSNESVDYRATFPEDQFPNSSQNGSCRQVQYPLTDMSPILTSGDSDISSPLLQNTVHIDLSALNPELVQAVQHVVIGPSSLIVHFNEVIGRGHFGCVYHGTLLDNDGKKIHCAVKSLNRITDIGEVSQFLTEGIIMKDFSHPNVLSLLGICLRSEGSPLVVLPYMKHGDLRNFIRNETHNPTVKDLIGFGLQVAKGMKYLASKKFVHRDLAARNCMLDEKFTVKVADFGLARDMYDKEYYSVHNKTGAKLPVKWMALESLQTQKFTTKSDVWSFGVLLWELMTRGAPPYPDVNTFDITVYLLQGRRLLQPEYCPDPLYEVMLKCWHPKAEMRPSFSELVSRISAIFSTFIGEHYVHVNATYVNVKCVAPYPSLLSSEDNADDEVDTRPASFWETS

SMILES | Ki [nM]
Nc1ncc(-c2cnn([C@@H]3CCOC3)c2)cc1-c1nnnn1-c1cccc(-c2cnn([C@@H]3CCOC3)c2)c1F [I-A-421] | 100 to 1000
Nc1ncc(C2=CCN(C(=O)C3CCCNC3)CC2)cc1-c1nnnn1-c1cccc(F)c1F (stereo not shown) [I-A-423] | ≤ 100
CC(=O)Nc1ccc(-c2cnc(N)c(-c3nncn3-c3cccc(Cl)c3Cl)c2)cc1 [I-A-76] | 100 to 1000
CN(C)C(=O)N1CCC(n2cc(-c3cnc(N)c(-c4nnnn4-c4cccc(Cl)c4F)c3)cn2)CC1 [I-A-445] | ≤ 100
Nc1ncc(-c2ccc(N3CCNCC3)cc2)cc1-c1nc2cc(F)ccc2n1-c1cccc(Cl)c1F [I-D-20] | 100 to 1000
CC(=O)c1ccc(-c2cnc(N)c(-c3nnnn3-c3cccc(Cl)c3Cl)c2)cc1 [I-A-88] | 100 to 1000
Nc1ncc(-c2ccc(NC(=O)CO)cc2)cc1-c1nnnn1-c1cccc(F)c1F [I-A-338] | ≤ 100
CC(C)c1cccc(-c2cnc(N)c(-c3nnnn3-c3cccc(F)c3F)c2)c1 [I-A-236] | 100 to 1000
Nc1ncc(-c2cnn(C3CCNCC3)c2)cc1-n1nnnc1-c1cccc(F)c1F [I-E-1] | 100 to 1000
CCOc1cccc(-c2cnc(N)c(-c3nnnn3-c3cccc(F)c3F)c2)c1 [I-A-315] | 100 to 1000
Cc1c(Cl)cccc1-n1nnnc1-c1cc(-c2cccnc2)cnc1N [I-A-551] | 100 to 1000
COC(=O)C(N)c1ccc(-c2cnc(N)c(-c3nnnn3-c3cccc(F)c3F)c2)cc1 (stereo not shown) [I-A-206] | ≤ 100
Nc1ncc(-c2cccc(CN3CCCC3)c2)cc1-c1nnnn1-c1cccc(Cl)c1Cl [I-A-109] | ≤ 100
COc1ccc(-c2cnc(N)c(-c3nnnn3-c3cccc(F)c3F)c2)cc1OC [I-A-309] | ≤ 100
Cc1nnc(-c2cc(-c3ccc(CN4CCCC4)cc3)cnc2N)n1-c1cccc(F)c1Cl [I-A-388] | 100 to 1000
COc1c(F)cccc1-n1nnnc1-c1cc(-c2cccnc2)cnc1N [I-A-561] | 100 to 1000
Nc1ncc(C2=CCNCC2)cc1-c1nnnn1-c1cccc(F)c1F [I-A-525] | 100 to 1000
Nc1ncc(-c2ccc(CN3CC[C@H](O)C3)cc2)cc1-c1nnnn1-c1cccc(Cl)c1Cl [I-A-120] | ≤ 100
CN1CCN(c2ccc(-c3cnc(N)c(-c4nncn4-c4cccc(F)c4F)n3)cc2)CC1 [I-A-7] | ≤ 100
CN1CCN(c2ccc(-c3cnc(N)c(-c4nnnn4-c4cccc(F)c4F)n3)cc2)CC1 [I-A-46] | ≤ 100
Nc1ncc(-c2ccc(C3CCNCC3)s2)cc1-c1nnnn1-c1cccc(Cl)c1Cl [I-A-416] | ≤ 100

The next lines start with the values.

Ki [nM] | SMILES
≤ 100 | CS(=O)(=O)c1ccc(-c2cnc(N)c(-c3nnnn3-c3cccc(F)c3F)c2)cc1 [I-A-250]
≤ 100 | CC(C)(C)OC(=O)N1CC=C(c2cnc(N)c(-c3nnnn3-c3cccc(F)c3F)c2)CC1 [I-A-506]
100 to 1000 | CC1CN(Cc2ccc(-c3cnc(N)c(-c4nnnn4-c4cccc(Cl)c4Cl)c3)cc2)CC(C)O1 (stereo not shown) [I-A-103]
100 to 1000 | Nc1ncc(-c2cccc(C(F)(F)F)c2)cc1-c1nncn1-c1cccc(F)c1F [I-A-116]
≤ 100 | Nc1ncc(-c2cnn(C3CCCNCC3)c2)cc1-c1nnnn1-c1cccc(Cl)c1Cl (stereo not shown) [I-A-429]
100 to 1000 | CNC(=O)Cn1cc(-c2cnc(N)c(-c3nnnn3-c3cccc(F)c3F)c2)cn1 [I-A-369]
100 to 1000 | Nc1ncc(-c2ccnc(F)c2)cc1-c1nnnn1-c1cccc(F)c1F [I-A-319]
≤ 100 | Nc1ncc(-c2ccc(O)cc2)cc1-c1nnnn1-c1cccc(F)c1F [I-A-144]
100 to 1000 | CC(=O)Nc1ccc(-c2cnc(N)c(-c3nnnn3-c3c(Cl)cccc3Cl)c2)cc1 [I-A-621]
100 to 1000 | Nc1cccc(-c2cnc(N)c(-c3nncn3-c3cccc(Cl)c3Cl)c2)c1 [I-A-68]
100 to 1000 | CC(=O)N1CCC[C@@H]1C(=O)N1CC=C(c2cnc(N)c(-c3nnnn3-c3cccc(F)c3F)c2)CC1 [I-A-649]
≤ 100 | Nc1ncc(-c2ccc(CC3(O)CCNCC3)cc2)cc1-c1nnnn1-c1cccc(F)c1F [I-A-157]
100 to 1000 | Nc1ncc(-c2nc3c(s2)CNCC3)cc1-c1nnnn1-c1cccc(F)c1F [I-A-465]
